Legend:
[1] = test system: MITOL and Tom20 mRNA in C2C12 cells; experiment: qRT-PCR analysis of C2C12 cells; assay type: cell-based, mouse; settings: C2C12, 5 μM or 10 μM
Method: (§1) Murine myoblast C2C12 cells were used for various cellular experiments in this study. Two different sources of C2C12 cells were used depending on the experiment: C2C12 cells obtained from RIKEN BRC (RCB0987) were used for gene expression, mtDNA quantification, and mitochondrial morphology analysis; C2C12 cells from ATCC (CRL-1772) were used for OCR analysis. Cells were cultured in Dulbecco’s Modified Eagle Medium (DMEM; Sigma-Aldrich or Nacalai Tesque), supplemented with 10% FBS and 1% penicillin–streptomycin. Cells were maintained in a humidified incubator at 37°C with 5% CO2.
For cellular experiments, berberine or quinoid-type berberrubine (Q-BRB) was dissolved in DMSO, and berberrubine acetic acid adduct (AcA-BRB) was dissolved in distilled H2O. Each compound was diluted in culture medium to the indicated final concentrations.
Total RNA was extracted from C2C12 cells using an RNA extraction kit (RNeasy Mini Kit, Qiagen). After washing with PBS, cells were collected by trypsinization and centrifugation at 500 × g for 5 min, and the pellet was lysed according to the manufacturer’s instructions. The extracted RNA was reverse-transcribed into cDNA using a reverse transcription kit (ReverTra Ace, TOYOBO). Quantitative real-time PCR was performed using a qPCR master mix (KAPA SYBR FAST qPCR Master Mix (2X) Kit, KAPABIOSYSTEMS) and a thermal cycler (StepOnePlus, Applied Biosystems). Gene expression levels were normalized to GAPDH. Primer sets used for qRT-PCR are listed in Supplementary Table 1.

C2C12 myoblasts = experiment: Oxygen consumption analysis of C2C12 cells (Seahorse); assay type: cell-based, mouse; settings: C2C12, 30 μM, 24 h, vs solvent control
Method: as §1
To generate mMITOL-knockout C2C12 cells, CRISPR-Cas9 vectors were constructed. […]
The oxygen consumption rate (OCR) of C2C12 myoblasts and H9c2 cardiomyocytes were measured using a Seahorse XFe24 Analyzer and the Seahorse XF Cell Mito Stress Test Kit (Agilent Technologies), as well as a Seahorse XF HS Mini Analyzer and the Seahorse XFp Cell Mito Stress Test Kit (Agilent Technologies), according to the manufacturer’s protocol. […] The assay was performed at 37 °C, and OCR was measured at baseline and after sequential injections of the following compounds: oligomycin (Oligo; 1 μM), FCCP (0.5 μM), and a mixture of rotenone and antimycin A (Rot/Anti; 0.5 μM each). […] Non-mitochondrial respiration was defined as the OCR measured after the injection of rotenone and antimycin A.

[2] = Hepatic microsomal stability assay, human; assay type: in vitro ADME; settings: CLint, 1 μM, 0.2 mg/mL microsomes, NADPH, 30 min
Method: (§2) Disappearance of the parent compound over time was measured by using the amount of drug at time zero as a reference. After 5 min of preincubation, 1 mM NADPH (final concentration; the same applies to the following) was added to a mixture containing 1 μM of the compound, 0.2 mg/mL of human or mouse liver microsomes (Sekisui XenoTech), 1 mM EDTA and 0.1 M phosphate buffer (pH 7.4). The mixture solution was incubated at 37 °C for 30 min with rotation at 60 rpm. An aliquot of 50 μL of the incubation mixture was added to 250 μL of chilled acetonitrile/internal standard (IS, methyltestosterone). After centrifugation at 3150 × g for 15 min at 4 °C, the supernatants were analyzed by LC-MS/MS. Hepatic microsomal stability (mL/min/kg, CLint) was calculated according to a previous report, using 48.8 (human) or 45.4 (mouse) mg MS protein/g liver and 25.7 (human) or 87.5 (mouse) g liver/kg body weight as scaling factors. Two technical replicates were performed.

[3] = Hepatic microsomal stability assay, mouse; assay type: in vitro ADME; settings: CLint, 1 μM, 0.2 mg/mL microsomes, NADPH, 30 min
Method: as §2

[4] = Unbound fraction in human plasma (equilibrium dialysis); assay type: in vitro ADME; settings: pH 7.4, equilibrium dialysis 6 h, 37 °C, read-out: Plasma protein binding (fraction unbound) human (pH7.4)
Method: (§3) An equilibrium dialysis apparatus was used to determine the unbound fraction for each compound in human or mouse plasma. High Throughput Dialysis Model HTD96b and Dialysis Membrane Strips MWCO 12–14 kDa (HTDialysis) were used. Plasma was spiked with the test compound (1 μM), and 150 μL aliquots were loaded into the apparatus and dialyzed versus 150 μL of 0.1 M phosphate buffer (pH 7.4) at 37 °C for 6 h by rotation at 80 rpm. The unbound fraction was calculated as the ratio of receiver side (buffer) to donor side (plasma) concentrations. Two technical replicates were performed.

[5] = Unbound fraction in mouse plasma (equilibrium dialysis); assay type: in vitro ADME; settings: pH 7.4, equilibrium dialysis 6 h, 37 °C, read-out: Plasma protein binding (fraction unbound) mouse (pH7.4)
Method: as §3

| SMILES | mRNA levels of MITOL and Tom20 [1] | OCR: basal respiration, ATP synthesis-linked respiration and maximal respiration (C2C12 myoblasts) | Liver microsomal metabolic stability human (pH7.4) [2] | Liver microsomal metabolic stability mouse (pH7.4) [3] | fraction unbound at 6 h, 1 μM [4] | fraction unbound at 6 h, 1 μM [5] |
| --- | --- | --- | --- | --- | --- | --- |
| COc1ccc2cc3[n+](cc2c1O)CCc1cc2c(cc1-3)OCO2 [AcA-BRB, berberrubine acetic acid adduct] | increased | significantly increased | < 22.0 mL/min/kg | 1794 mL/min/kg | 0.374 | 0.203 |
| COc1ccc2cc3n(cc-2c1=O)CCc1cc2c(cc1-3)OCO2 [Q-BRB, quinoid-type berberrubine] | increased | significantly increased | < 22.0 mL/min/kg | 1839 mL/min/kg | 0.359 | 0.162 |

Source: PMC13091788 (NPJ Aging, 2026)
